Consider 24 compounds from patent publication US4959368A, “Therapeutic agent for neurological diseases” (Mitsui Petrochemical Industries Ltd., priority 1986, dated 1990).

The assay deals with mouse neuroblastoma cell line neuro-2a. Description: Activity on neuro-2a, cells with outgrown neurites. It counts as cell-based. As to the method: In order to examine the effects of the test compounds, the following method was also employed.
Mouse neuro 2a cells in the logarithmic growth period in the Dulbecco's modified Eagle's medium (DMEM) containing 10% FCS was seeded in a 48-well plate so that the number of cells was 1,000 cells/well, and cultured for one day in 0.25 ml of the culture fluid in each well. The culture medium was then replaced by a medium containing each of the test compounds and FCS, and the cells were further cultured for 24 hours. Then, a 4% aqueous glutaraldehyde solution in the same amount as the medium (0.25 ml) was added, and the culture fluid was left to stand at room temperature for 2 hours to fix the cells. After washing with water, a 0.05% aqueous solution of methylene blue was added to stain the cells. Under a microscope, the number of cells containing outgrown neurites (cells having at least one neutrite with a length at least two times as large as the long diameter of the cell) was counted visually, and the proportion of these cells in the entire cells was calculated. The well was observed over 5 or more visual fields (at least 2% of the entire surface area of the well) continuous to the left and right from a mark put at the center of the well, and more than 200 cells was counted. One drug compound was used in 6 different concentrations at most, and three runs were conducted for each concentration.

Where [1] appears, read: Table 3 Run No. 2, 0.3 mM, control 1.9 ± 0.9.
Setting [2] is: Table 3 Run No. 2, 1 mM, control 1.9 ± 0.9.
The mark [3] stands for this setting: Table 3 Run No. 10, 0.1 mM, control 1.7 ± 0.7.
Where [4] appears, read: Table 3 Run No. 9, 0.03 mM, control 2.0 ± 1.0.
The mark [5] stands for this setting: Table 3 Run No. 8, 0.3 mM, control 3.7 ± 0.4.
Where [6] appears, read: Table 3 Run No. 8, 0.5 mM, control 3.7 ± 0.4.
Where [7] appears, read: Table 3 Run No. 8, 1 mM, control 3.7 ± 0.4.
The mark [8] stands for this setting: Table 3 Run No. 4, 0.3 mM, control 3.1 ± 0.2.
Where [9] appears, read: Table 3 Run No. 4, 0.5 mM, control 3.1 ± 0.2.
[10] abbreviates: Table 3 Run No. 4, 1 mM, control 3.1 ± 0.2.
Setting [11] is: Table 3 Run No. 4, 0.1 mM, control 3.1 ± 0.2.
[12] abbreviates: Table 3 second Run No. 5, 1 mM, control 4.5 ± 0.3.
The mark [13] stands for this setting: Table 3 Run No. 9, 0.1 mM, control 2.0 ± 1.0.
Setting [14] is: Table 3 Run No. 9, 0.3 mM, control 2.0 ± 1.0.
The mark [15] stands for this setting: Table 3 Run No. 9, 1 mM, control 2.0 ± 1.0.
Setting [16] is: Table 3 Run No. 9, 3 mM, control 2.0 ± 1.0.

As for `CCCN(CCC)C(=O)c1cnc(N2CCNCC2)nc1NCC` [Compound 104], the “Cells having neurites with a length at least twice the long diameter of cell/total number of cells” value stood at 10.6 ± 4.6% under setting [1] and 5.3 ± 1.8% under setting [2].

On to `CCN(CC)C(=O)c1cnc(N2CCNCC2)nc1NC(C)C` [Compound 108], for which the “Cells having neurites with a length at least twice the long diameter of cell/total number of cells” value by setting is: under setting [1], 4.6 ± 1.2%; under setting [2], 6.9 ± 1.6%.

Take `CCN(CC)C(=O)c1cnc(N2CCNCC2)nc1OC` [Compound 112]: under setting [2], the “Cells having neurites with a length at least twice the long diameter of cell/total number of cells” value is reported as 3.5 ± 0.5%.

For the compound `COC(=O)c1cnc(N2CCNCC2)nc1NC(C)C` [Compound 116], the “Cells having neurites with a length at least twice the long diameter of cell/total number of cells” value is, setting by setting: (Table 3 Run No. 10, 0.01 mM, control 1.7 ± 0.7) 7.5 ± 2.2%; (Table 3 Run No. 10, 0.03 mM, control 1.7 ± 0.7) 11.6 ± 2.0%; under setting [3], 10.6 ± 4.5%.

As for `CNc1nc(N2CCNCC2)ncc1CCO` [Compound 140, 2-Piperazino-5-(2-hydroxyethyl)-4-methylaminopyrimidine 2-naphthalenesulfonate], the “Cells having neurites with a length at least twice the long diameter of cell/total number of cells” value under setting [4] is 3.7 ± 1.4%.

For the compound `Cl.c1nc(N2CCNCC2)nc2c1CCC2` [Compound 202, 6,7-Dihydro-2-piperazino(5H)cyclopentapyrimidine hydrochloride], the “Cells having neurites with a length at least twice the long diameter of cell/total number of cells” value (Table 3 Run No. 6, 0.1 mM, control 4.4 ± 0.9) is given as 5.6 ± 1.1%.

Consider `CN1C(=O)Cc2cnc(N3CCNCC3)nc21` [Compound 410], for which the “Cells having neurites with a length at least twice the long diameter of cell/total number of cells” value runs as follows: under setting [5], 22.4 ± 2.9%; under setting [6], 36.7 ± 6.1%; under setting [7], 15.5 ± 0.3%.

For `CN1C(=O)Cc2cnc(N3CCNCC3)nc21` [Compound 412], the “Cells having neurites with a length at least twice the long diameter of cell/total number of cells” value runs as follows: (Table 3 Run No. 3, 0.3 mM, control 3.9 ± 0.3) 16.6 ± 2.6%; (Table 3 Run No. 3, 1 mM, control 3.9 ± 0.3) 44.2 ± 1.4%; under setting [8], 15.8 ± 2.3%; under setting [9], 27.9 ± 2.9%; under setting [10], 47.8 ± 0.4%; under setting [5], 18.4 ± 0.5%. Besides, the “Cells having neurites with a length at least twice the long diameter of cell/total number of cells” value amounted to 49.5 ± 3.5% under setting [6] and 32.6 ± 1.3% under setting [7].

As for `CN1C(=O)Cc2cnc(N3CCNCC3)nc21` [Compound 414], the “Cells having neurites with a length at least twice the long diameter of cell/total number of cells” value is, setting by setting: under setting [5], 15.0 ± 4.0%; under setting [6], 33.4 ± 2.6%; under setting [7], 43.6 ± 7.8%.

For the compound `CN1C(=O)Cc2cnc(N3CCNCC3)nc21` [Compound 416], the “Cells having neurites with a length at least twice the long diameter of cell/total number of cells” value reads like this: (Table 3 Run No. 8, 0.1 mM, control 3.7 ± 0.4) 11.7 ± 3.3%; under setting [5], 40.4 ± 9.2%; under setting [6], 48.7 ± 5.7%.

For the compound `CN1C(=O)Cc2cnc(N3CCNCC3)nc21.O=P(O)(O)O` [Compound 418, 5,6-Dihydro-7-methyl-6-oxo-2-piperazino(7H)pyrrolo[2,3-d]pyrimidine phosphate], the “Cells having neurites with a length at least twice the long diameter of cell/total number of cells” value under setting [5] came to 16.6 ± 1.1%, the “Cells having neurites with a length at least twice the long diameter of cell/total number of cells” value under setting [6] was found to be 29.6 ± 3.3% and the “Cells having neurites with a length at least twice the long diameter of cell/total number of cells” value under setting [7] is listed as 47.4 ± 1.6%.

Take `CN1C(=O)Cc2cnc(N3CCNCC3)nc21` [Compound 420]: the “Cells having neurites with a length at least twice the long diameter of cell/total number of cells” value was determined as 16.5 ± 2.1% under setting [5], 30.6 ± 5.0% under setting [6] and 47.5 ± 0.6% under setting [7].

In the case of `COCCN1C(=O)Cc2cnc(N3CCNCC3)nc21.O=C(O)/C=C\C(=O)O` [Compound 430, 5,6-Dihydro-7-(2-methoxyethyl)-6-oxo-2-piperazino(7H)pyrrolo[2,3-d]pyrimidine maleate], the “Cells having neurites with a length at least twice the long diameter of cell/total number of cells” value reads like this: under setting [11], 7.2 ± 1.9%; under setting [9], 11.7 ± 1.8%; under setting [10], 13.4 ± 0.4%; (Table 3 second Run No. 5, 0.3 mM, control 4.5 ± 0.3) 7.6 ± 0.8%; under setting [12], 9.0 ± 0.8%.

Consider `CN1C(=O)Cc2cnc(N3CCN(Cc4ccccc4)CC3)nc21` [Compound 434, 2-(4-Benzylpiperazino)-5,6-dihydro-7-methyl-6-oxo(7H)pyrrolo[2,3-d]pyrimidine 2-naphthalenesulfonate], for which the “Cells having neurites with a length at least twice the long diameter of cell/total number of cells” value under setting [13] worked out at 6.0 ± 1.2%.

Turning to `CN1C(=O)Cc2cnc(N3CCN(Cc4ccc5c(c4)OCO5)CC3)nc21` [Compound 436, 5,6-Dihydro-7-methyl-2[4-(3,4-methylenedioxyphenylmethyl)piperazino]-6-oxo(7H)pyrrolo[2,3-d]pyrimidine], the “Cells having neurites with a length at least twice the long diameter of cell/total number of cells” value under setting [4] came out at 14.3 ± 2.9%, the “Cells having neurites with a length at least twice the long diameter of cell/total number of cells” value under setting [13] came to 15.6 ± 7.3% and the “Cells having neurites with a length at least twice the long diameter of cell/total number of cells” value under setting [14] was 12.5 ± 6.2%.

As for `CC(=O)N1CCN(c2ncc3c(n2)N(C)C(=O)C3)CC1` [Compound 440, 2-(4-Acetylpiperazino)-5,6-dihydro-7-methyl-6-oxo(7H)pyrrolo[2,3-d]pyrimidine], the “Cells having neurites with a length at least twice the long diameter of cell/total number of cells” value was found to be 5.8 ± 1.0% under setting [15] and 12.9 ± 4.1% under setting [16].

Regarding `CCOC(=O)N1CCN(c2ncc3c(n2)N(C)C(=O)C3)CC1` [Compound 442], the “Cells having neurites with a length at least twice the long diameter of cell/total number of cells” value is, setting by setting: (Table 3 Run No. 2, 0.1 mM, control 1.9 ± 0.9) 5.7 ± 0.5%; under setting [1], 7.1 ± 2.6%; under setting [2], 9.1 ± 0.8%; under setting [16], 13.8 ± 1.2%.

For the compound `CC1C(=O)N(C)c2nc(N3CCNCC3)ncc21.O=C(O)/C=C\C(=O)O` (stereo not drawn) [Compound 446, 5,6-Dihydro-5,7-dimethyl-6-oxo-2-piperazino(7H)pyrrolo[2,3-d]pyrimidine maleate], the “Cells having neurites with a length at least twice the long diameter of cell/total number of cells” value (Table 3 Run No. 9, 0.5 mM, control 2.0 ± 1.0) stood at 6.3 ± 0.4% and the “Cells having neurites with a length at least twice the long diameter of cell/total number of cells” value under setting [15] is reported as 9.2 ± 2.0%.

Consider `Cc1nc(N2CCNCC2)nc2c1CC(=O)N2C` [Compound 464, 5,6-Dihydro-4,7-dimethyl-6-oxo-2-piperazino(7H)pyrrolo[2,3-d]pyrimidine], for which the “Cells having neurites with a length at least twice the long diameter of cell/total number of cells” value reads like this: under setting [11], 7.1 ± 1.6%; under setting [8], 10.1 ± 1.9%; under setting [10], 13.1 ± 1.1%.

Turning to `Cc1nc(N2CCNCC2)nc2c1CC(=O)N2C.Cl` [Compound 466, 5,6-Dihydro-4,7-dimethyl-6-oxo-2-piperazino(7H)pyrrolo[2,3-d]pyrimidine hydrochloride], the “Cells having neurites with a length at least twice the long diameter of cell/total number of cells” value by setting is: (Table 3 second Run No. 5, 0.1 mM, control 4.5 ± 0.3) 5.4 ± 0.3%; under setting [12], 13.1 ± 1.4%.

Consider `CCC(C)N1Cc2nc(N3CCNCC3)ncc2C1=O` (stereo not drawn) [Compound 638], for which the “Cells having neurites with a length at least twice the long diameter of cell/total number of cells” value under setting [13] is reported as 6.5 ± 0.2%.

As to `CC(C)(C)N1Cc2nc(N3CCNCC3)ncc2C1=O` [Compound 642], the “Cells having neurites with a length at least twice the long diameter of cell/total number of cells” value reads like this: under setting [13], 9.5 ± 1.2%; under setting [14], 14.4 ± 4.0%.

In the case of `CCCC(C)N1Cc2nc(N3CCNCC3)ncc2C1=O` (stereo not drawn) [Compound 646], under setting [3], the “Cells having neurites with a length at least twice the long diameter of cell/total number of cells” value came to 7.3 ± 0.2%.

With `NC(=O)CN1Cc2nc(N3CCNCC3)ncc2C1=O` [Compound 652], the “Cells having neurites with a length at least twice the long diameter of cell/total number of cells” value under setting [2] turned out to be 4.5 ± 0.3%.
